Results taken from ChEMBL document CHEMBL1201862, “PubChem BioAssay data set” (2004).
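Values below derive from 48-hour exposures of cells grown in 96-well plates, with endpoints linearly interpolated between the two concentrations bracketing the appropriate inhibition level. GI50 is the concentration that inhibits growth by half.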 The source made the active and inactive calls. Cut-off read from the data, not from the text of the source: active = GI50 up to about 1.1 µM and inactive = higher.

Tests used:
Assay in all cases: inhibition of tumour cell growth, NCI panel, 48 h
MDA-MB-435 = test system: MDA-MB-435
SF-268 = test system: SF-268
UACC-257 = test system: UACC-257
Hs-578T = test system: Hs-578T
HOP-62 = test system: HOP-62
MDA-MB-231 = test system: MDA-MB-231
SN12C = test system: SN12C
OVCAR-3 = test system: OVCAR-3
HL-60 = test system: HL-60
SNB-75 = test system: SNB-75
RPMI-8226 = test system: RPMI-8226
RXF 393 = test system: RXF 393
PC-3 = test system: PC-3
Malme-3M = test system: Malme-3M
SK-MEL-28 = test system: SK-MEL-28
786-0 = test system: 786-0
LOX IMVI = test system: LOX IMVI
T47D = test system: T47D
A549 = test system: A549
HOP-92 = test system: HOP-92

SMILES	GI50 (MDA-MB-435)	GI50 (SF-268)	GI50 (UACC-257)	GI50 (Hs-578T)	GI50 (HOP-62)	GI50 (MDA-MB-231)	GI50 (SN12C)	GI50 (OVCAR-3)	GI50 (HL-60)	GI50 (SNB-75)	GI50 (RPMI-8226)	GI50 (RXF 393)	GI50 (PC-3)	GI50 (Malme-3M)	GI50 (SK-MEL-28)	GI50 (786-0)	GI50 (LOX IMVI)	GI50 (T47D)	GI50 (A549)	GI50 (HOP-92)
O=c1oc2ccccc2n1CCCn1c(=O)oc2ccccc21	> 100 µM (inactive)	> 100 µM (inactive)	> 100 µM (inactive)	> 100 µM (inactive)	> 100 µM (inactive)	> 100 µM (inactive)	> 100 µM (inactive)	> 100 µM (inactive)	> 100 µM (inactive)	44.5 µM (inactive)	> 100 µM (inactive)	82.8 µM (inactive)	> 100 µM (inactive)	> 100 µM (inactive)	> 100 µM (inactive)	> 100 µM (inactive)	> 100 µM (inactive)	–	–	–
Nc1ccc(Cc2c(N)[nH]c(=O)[nH]c2=O)cc1	> 100 µM (inactive)	> 100 µM (inactive)	> 100 µM (inactive)	> 100 µM (inactive)	–	> 100 µM (inactive)	> 100 µM (inactive)	> 100 µM (inactive)	85.5 µM (inactive)	–	> 100 µM (inactive)	–	> 100 µM (inactive)	> 100 µM (inactive)	> 100 µM (inactive)	> 100 µM (inactive)	> 100 µM (inactive)	> 100 µM (inactive)	> 100 µM (inactive)	> 100 µM (inactive)
O=c1[nH]c(=O)n(C2CC(O)C(CO)O2)cc1C1=NC1 (stereo not drawn)	> 100 µM (inactive)	> 100 µM (inactive)	> 100 µM (inactive)	> 100 µM (inactive)	> 100 µM (inactive)	> 100 µM (inactive)	> 100 µM (inactive)	> 100 µM (inactive)	–	81.3 µM (inactive)	50.6 µM (inactive)	> 100 µM (inactive)	–	–	> 100 µM (inactive)	> 100 µM (inactive)	–	35.2 µM (inactive)	> 100 µM (inactive)	> 100 µM (inactive)
O=C(C#Cc1ccccc1)C1=Cc2ccccc2OC1	3.86 µM (inactive)	5.5 µM (inactive)	2.7 µM (inactive)	8.26 µM (inactive)	13.6 µM (inactive)	3.21 µM (inactive)	3.85 µM (inactive)	2.35 µM (inactive)	2.19 µM (inactive)	6.14 µM (inactive)	2.71 µM (inactive)	3 µM (inactive)	4.34 µM (inactive)	4.2 µM (inactive)	7.53 µM (inactive)	2.4 µM (inactive)	0.783 µM (active)	3.26 µM (inactive)	9.31 µM (inactive)	–
COC(=O)NC1(NC(=O)OC)NC(=O)c2cc(OC)c(OC)cc2N1	2.97 µM (inactive)	78.7 µM (inactive)	45 µM (inactive)	29.4 µM (inactive)	3.14 µM (inactive)	–	> 100 µM (inactive)	21.2 µM (inactive)	–	–	32.5 µM (inactive)	–	26.1 µM (inactive)	–	29.3 µM (inactive)	32.6 µM (inactive)	62.1 µM (inactive)	39.4 µM (inactive)	61.8 µM (inactive)	–
Cc1cnoc1NS(=O)(=O)c1ccc(Nc2nnc(/C=C/c3c(O)ccc4ccccc34)c(=O)n2N)cc1	26.7 µM (inactive)	11.3 µM (inactive)	–	29.2 µM (inactive)	46 µM (inactive)	–	29.4 µM (inactive)	17.3 µM (inactive)	0.74 µM (active)	20.8 µM (inactive)	20.2 µM (inactive)	24 µM (inactive)	–	24 µM (inactive)	–	35.1 µM (inactive)	19.1 µM (inactive)	20.1 µM (inactive)	35.1 µM (inactive)	41.3 µM (inactive)
CCCn1c(SC)nc(COC(=O)NC)c1COC(=O)NC	> 100 µM (inactive)	> 100 µM (inactive)	> 100 µM (inactive)	> 100 µM (inactive)	> 100 µM (inactive)	> 100 µM (inactive)	> 100 µM (inactive)	> 100 µM (inactive)	> 100 µM (inactive)	> 100 µM (inactive)	> 100 µM (inactive)	–	> 100 µM (inactive)	–	> 100 µM (inactive)	> 100 µM (inactive)	> 100 µM (inactive)	> 100 µM (inactive)	> 100 µM (inactive)	–
O=C1CCC2=C(CCC2)N1CCc1ccc2c(c1)OCO2	–	77.6 µM (inactive)	84.9 µM (inactive)	49 µM (inactive)	94.6 µM (inactive)	> 100 µM (inactive)	95.1 µM (inactive)	–	7.62 µM (inactive)	29.2 µM (inactive)	< 0.01 µM (active)	1.21 µM (inactive)	32.5 µM (inactive)	> 100 µM (inactive)	> 100 µM (inactive)	> 100 µM (inactive)	59.6 µM (inactive)	37 µM (inactive)	62.1 µM (inactive)	–
